Test results as given in US10016382B2, “Method for decreasing skeletal muscle damage and/or oxidative stress in mammals” (LONZA INC., priority 2014, dated 2018).
“And” between values parts separate entries of the source, which are not always exact repeats. Equal values may be shown once.

Legend:
Labrador Retrievers = test: Heart rate and body temperature recovery following 15 mile run, Example 1; type: in vivo, dog; settings: Ex.1, 250 mg/d; for Dog body temperature after run / Heartrate after run / Temperature before run / Heartrate before run: mean ± SEM; for Temperature before run / Heartrate before run: before 15 mile run
Text: Each test dog wore an Actical activity monitor from Philips Respironics on a collar for the short higher intensity runs and also wore an Actical activity monitor for the weekly longer endurance runs. The activity data was downloaded into spread sheets along with each dogs identity. Twenty four hours after each long run during the 13 wk running program each of the dogs were scored by kennel staff for soreness or any type of lameness The exercise program was decreased in a tapering program during wk 11 and 12 to allow the dogs to rest for the final long run completed on wk 13. Pre-run serum samples from each test dog was taken 24 hr before the last endurance run. The heart rate and basal body temperature was determined for each test dog prior to the last long endurance run. Each performance dog also wore the Actical activity monitor during the last endurance run. The dogs were put through a 15 mile run that included mud, water, tall grass, and swimming. The dogs were timed when they completed the course. The dogs were encouraged by kennel staff that rode along in a 4 wheel all terrain type vehicle during all of the endurance runs. […] Immediately following the 15 mile endurance run, each dog was placed in a kennel and evaluated for recovery time for body temperature (every 15 minutes for 2 hr) and heart rate (every 2 minutes for 14 minutes). Twenty four hours after test dogs ran the last 15 endurance run, post-run serum samples were taken to evaluate biomarkers for muscle damage and antioxidant status. Each test dog was also scanned with the GE Prodigy DEXA to determine body composition change that occurred during the course of the 13 wk study. The dogs were timed during the last 15 mile run at the end of the study. The body temperature and heart rate for each dog was determined just prior to the long 15 mile run. The heart rate measurements were determined manually and body temperature was determined by using a rectal thermometer. Each staff member was responsible for determining the time required to complete the run for one of the test dogs in each set. Each staff member was also responsible for determining the heart rate and body temperature of their specific assigned dog immediately upon their return after the run. The heart rate was determined every 2 minutes for a fourteen minute period following the last long run and the body temperature was determined every 15 minute for a two hour period after completing the long run. The heart rate and body temperature was determined both before and after to evaluate the fitness and time required after run to reach basal HR and body temperatures.

[1] = tested on: Thiobarbituric acid reactive substances (TBARS); test: Serum TBARS, Example 2 part one; type: in vivo, dog; settings: for TBARS level, serum: Ex.2 part one, 250 mg/d; for TBARS: serum
Procedure: Twenty-four hours after test dogs ran the last 15 mile endurance run, serum samples were taken to evaluate biomarkers for muscle damage and antioxidant status. Blood samples were taken 1) just prior to the beginning of the study; 2) 1 day prior to running the final 15 mile run on the 14th week; 3) 1 hour immediately following the 15 mile run; and 4) 24 hours following the final 15 mile run. After a blood sample was drawn, it was allowed to clot for 30 minutes at 25° C. before being centrifuged for 15 minutes at 2000 g at 4° C. Serum was aliquoted into 0.65 mL microcentrifuge tubes and stored at −80° C. until being assayed at the end of the study for creatine kinase, canine myoglobin, thiobarbituric acid reactive substances (TBARS), and total antioxidant capacity (TAC) using the commercially available kits described in Example 1.

[2] = 0 min after 15 mile run, both sexes
[3] = 0 min after 15 mile run, females

In the case of `C[N+](C)(C)C[C@H](O)CC(=O)[O-]` [L-carnitine], the “Dog body temperature after run” value (Labrador Retrievers; [2]) is reported as 103.7 ± 0.3 n = 19 ° F, the Heartrate after run (Labrador Retrievers; [2]) is reported as 159 and 159 ± 4 n = 16 and the “Dog body temperature after run” value (Labrador Retrievers; [3]) is reported as 103.6 ± 0.5 n = 9 ° F. For the same molecule, the Heartrate after run (Labrador Retrievers; [3]) was 155 ± 5 n = 8, the “Dog body temperature after run” value (Labrador Retrievers; 0 min after 15 mile run, males) was 103.8 ± 0.3 n = 10 ° F and the Heartrate after run (Labrador Retrievers; 0 min after 15 mile run, males) was 164 ± 6 n = 11. For the same molecule, the Heartrate after run (Labrador Retrievers; 2 min after 15 mile run, both sexes) was 146 ± 5 n = 16, the Heartrate after run (Labrador Retrievers; 2 min after 15 mile run, females) was 139 ± 6 n = 8 and the Heartrate after run (Labrador Retrievers; 2 min after 15 mile run, males) was 149 ± 6 n = 11. For the same molecule, the Heartrate after run (Labrador Retrievers; 4 min after 15 mile run, both sexes) was 131 ± 5 n = 16, the Heartrate after run (Labrador Retrievers; 4 min after 15 mile run, females) was 123 ± 6 n = 8 and the Heartrate after run (Labrador Retrievers; 4 min after 15 mile run, males) was 143 ± 8 n = 11. It also gave a Heartrate after run (Labrador Retrievers; 6 min after 15 mile run, both sexes) of 123 ± 5 n = 16, a Heartrate after run (Labrador Retrievers; 6 min after 15 mile run, females) of 120 ± 6 n = 8 and a Heartrate after run (Labrador Retrievers; 6 min after 15 mile run, males) of 131 ± 6 n = 11. For the same molecule, the Heartrate after run (Labrador Retrievers; 8 min after 15 mile run, both sexes) was 114 ± 4 n = 16, the Heartrate after run (Labrador Retrievers; 8 min after 15 mile run, females) was 111 ± 6 n = 8 and the Heartrate after run (Labrador Retrievers; 8 min after 15 mile run, males) was 125 ± 6 n = 11. The Heartrate after run (Labrador Retrievers; 10 min after 15 mile run, both sexes) was 113 ± 5 n = 16, the Heartrate after run (Labrador Retrievers; 10 min after 15 mile run, females) was 109 ± 5 n = 8 and the Heartrate after run (Labrador Retrievers; 10 min after 15 mile run, males) was 120 ± 6 n = 11. The Heartrate after run (Labrador Retrievers; 12 min after 15 mile run, both sexes) was 107 ± 4 n = 16, the Heartrate after run (Labrador Retrievers; 12 min after 15 mile run, females) was 107 ± 7 n = 7 and the Heartrate after run (Labrador Retrievers; 12 min after 15 mile run, males) was 112 ± 5 n = 11. The Heartrate after run (Labrador Retrievers; 14 min after 15 mile run, both sexes) was 101 ± 4 n = 16, the Heartrate after run (Labrador Retrievers; 14 min after 15 mile run, females) was 103 ± 7 n = 7 and the Heartrate after run (Labrador Retrievers; 14 min after 15 mile run, males) was 102 ± 5 n = 10. The “Dog body temperature after run” value (Labrador Retrievers; 15 min after 15 mile run, both sexes) was 102.6 ± 0.2 n = 20 ° F, the “Dog body temperature after run” value (Labrador Retrievers; 15 min after 15 mile run, females) was 102.6 ± 0.4 n = 9 ° F and the “Dog body temperature after run” value (Labrador Retrievers; 15 min after 15 mile run, males) was 102.5 ± 0.2 n = 11 ° F. For the same molecule, the “Dog body temperature after run” value (Labrador Retrievers; 30 min after 15 mile run, both sexes) was 101.6 ± 0.1 n = 20 ° F, the “Dog body temperature after run” value (Labrador Retrievers; 30 min after 15 mile run, females) was 101.3 ± 0.2 n = 9 ° F and the “Dog body temperature after run” value (Labrador Retrievers; 30 min after 15 mile run, males) was 101.9 ± 0.1 n = 11 ° F. For the same molecule, the “Dog body temperature after run” value (Labrador Retrievers; 45 min after 15 mile run, both sexes) was 101.1 ± 0.1 n = 20 ° F, the “Dog body temperature after run” value (Labrador Retrievers; 45 min after 15 mile run, females) was 101 ± 0.2 n = 9 ° F and the “Dog body temperature after run” value (Labrador Retrievers; 45 min after 15 mile run, males) was 101.1 ± 0.1 n = 11 ° F. For the same molecule, the “Dog body temperature after run” value (Labrador Retrievers; 60 min after 15 mile run, both sexes) was 100.9 ± 0.2 n = 20 ° F, the “Dog body temperature after run” value (Labrador Retrievers; 60 min after 15 mile run, females) was 100.8 ± 0.3 n = 9 ° F and the “Dog body temperature after run” value (Labrador Retrievers; 60 min after 15 mile run, males) was 101 ± 0.2 n = 11 ° F. For the same molecule, the “Dog body temperature after run” value (Labrador Retrievers; 75 min after 15 mile run, both sexes) was 100.7 ± 0.2 n = 19 ° F, the “Dog body temperature after run” value (Labrador Retrievers; 75 min after 15 mile run, females) was 100.7 ± 0.3 n = 8 ° F and the “Dog body temperature after run” value (Labrador Retrievers; 75 min after 15 mile run, males) was 100.7 ± 0.2 n = 11 ° F. For the same molecule, the “Dog body temperature after run” value (Labrador Retrievers; 90 min after 15 mile run, both sexes) was 100.7 ± 0.2 n = 20 ° F, the “Dog body temperature after run” value (Labrador Retrievers; 90 min after 15 mile run, females) was 100.6 ± 0.3 n = 9 ° F and the “Dog body temperature after run” value (Labrador Retrievers; 90 min after 15 mile run, males) was 100.8 ± 0.2 n = 11 ° F. For the same molecule, the “Dog body temperature after run” value (Labrador Retrievers; 105 min after 15 mile run, both sexes) was 100.4 ± 0.2 n = 19 ° F, the “Dog body temperature after run” value (Labrador Retrievers; 105 min after 15 mile run, females) was 100.2 ± 0.4 n = 8 ° F and the “Dog body temperature after run” value (Labrador Retrievers; 105 min after 15 mile run, males) was 100.5 ± 0.2 n = 11 ° F. The “Dog body temperature after run” value (Labrador Retrievers; 120 min after 15 mile run, both sexes) was 100.7 ± 0.2 n = 14 ° F, the “Dog body temperature after run” value (Labrador Retrievers; 120 min after 15 mile run, females) was 100.7 ± 0.4 n = 4 ° F and the “Dog body temperature after run” value (Labrador Retrievers; 120 min after 15 mile run, males) was 100.8 ± 0.2 n = 10 ° F. For the same molecule, the “Time to get heart rate back to basal levels” value (Labrador Retrievers; after 15 mile run, both treatments required this time) was “approximately 14 minutes”, the Temperature before run (Labrador Retrievers; both sexes) was 101.3 ± 0.2 n = 20 ° F and the Heartrate before run (Labrador Retrievers; females) was 89 ± 3 n = 9. For the same molecule, the Temperature before run (Labrador Retrievers; females) was 101.0 ± 0.1 n = 9 ° F, the Heartrate before run (Labrador Retrievers; males) was 89 ± 3 n = 11 and the Temperature before run (Labrador Retrievers; males) was 101.7 ± 0.4 n = 11 ° F. For the same molecule, the “Heart rate and body temperature recovery vs control” value (Labrador Retrievers; following the final long run) was “not different”, the “Time back to pre-run core temperature” value (Labrador Retrievers; males, following 15 mile run, both groups) was 30 to 45 min and the “TBARS level, serum” value ([1]; post-run 1 hr, MDA) was 16.45 µM. The “TBARS level, serum” value ([1]; prior to the 15 mile endurance run) was 15.36 μM malondialdehyde (MDA), the TBARS ([1]; FEMALES, Baseline) was 13.03 ± 1.29 μM MDA and the TBARS ([1]; FEMALES, Post-Run 1 Hr) was 17.44 ± 2.26 μM MDA. The TBARS ([1]; FEMALES, Post-Run 24 Hr) was 26.01 ± 3.09 μM MDA, the TBARS ([1]; FEMALES, Pre-Run) was 16.68 ± 2.16 μM MDA and the TBARS ([1]; MALES, Baseline) was 14.51 ± 1.38 μM MDA. For the same molecule, the TBARS ([1]; MALES, Post-Run 1 Hr) was 15.46 ± 1.79 μM MDA, the TBARS ([1]; MALES, Post-Run 24 Hr) was 19.62 ± 2.38 μM MDA and the TBARS ([1]; MALES, Pre-Run) was 14.03 ± 2.24 μM MDA. It also gave a TBARS ([1]; Whole Groups, Baseline) of 13.77 ± 0.94 μM MDA, a TBARS ([1]; Whole Groups, Post-Run 1 Hr, Post-Run 1 Hr) of 16.45 ± 1.43 μM MDA and a TBARS ([1]; Whole Groups, Post-Run 24 Hr, Post-Run 24 Hr) of 22.81 ± 2.01 μM MDA. For the same molecule, the TBARS ([1]; Whole Groups, Pre-Run) was 15.36 ± 1.55 μM MDA.
